One assay deals with sigma-2 receptor (S2R). Particulars: read-out: KI S2R, cited from earlier work.
A further assay has as its system S1R + S2R. The assay is described as follows: Saturation binding of [3H]-DTG in rat liver. Particulars: RL membranes.
Another assay has as its target sigma-1 receptor (S1R). Particulars: read-out: KI S1R, cited from earlier work.
A further assay relates to S1R knockout mice. The conditions noted are these: ref Fontanilla et al., 2009; cited from earlier work.
Where [1] appears, read: ref 1 Matsumoto RR et al. (1995) EJP 280: 301-310.
[2] abbreviates: ref 8 Husbands SM et al (1997) J Med Chem 40:4340-4346.
The mark [3] stands for this setting: ref 2 Fontanilla D et al. (2009) Science 323(5916): 934-937.

Like-named read-outs stand apart in the source and are kept apart here.

By Ki is commonly meant a dissociation constant, usually derived from enzyme kinetics or from competition with a known ligand. As for `O=C(OCCN1CCOCC1)C1(c2ccccc2)CCCCC1` [PRE-084], at sigma-2 receptor (S2R) (ref 6 Maurice T. et al. (1999) Br J Pharmacol 127(2): 335-342), the Ki is 13100 nM.

Regarding `Cc1ccccc1NC(=N)Nc1ccccc1C` [[^3H]-DTG, [^3H]-1,3-di(2-tolyl)guanidine], the “S1R + S2R Binding, Specific Binding” value in the assay with S1R + S2R (measured [3H]-DTG concentration 0.25 nM) is on record as 0.44 pmol/mg; in the assay on S1R + S2R (measured [3H]-DTG concentration 0.8 nM), 0.94 pmol/mg; with S1R + S2R (measured [3H]-DTG concentration 2.7 nM) it was 2.21 pmol/mg; in the assay with S1R + S2R (measured [3H]-DTG concentration 9 nM) it was 6.52 pmol/mg; in the assay on S1R + S2R (measured [3H]-DTG concentration 27 nM), 11.36 pmol/mg; in the assay on S1R + S2R (measured [3H]-DTG concentration 92 nM), 18.55 pmol/mg. Further, in the assay on S1R + S2R (measured [3H]-DTG concentration 310 nM), the “S1R + S2R Binding, Specific Binding” value turned out to be 20.14 pmol/mg.

For `CN(C)CCN(C)CCc1ccc(Cl)c(Cl)c1` [BD1047], the Ki on sigma-1 receptor (S1R) (setting [1]) was 0.93 nM; on sigma-2 receptor (S2R) (setting [1]), 47 nM.

Regarding `C[C@@H]1CN(CCCn2c3ccccc3c3ccccc32)C[C@H](C)N1` [Rimcazole], the Ki was […] at sigma-1 receptor (S1R) (setting [2]) and 386 nM at sigma-2 receptor (S2R) (setting [2]).

As for `CN1CCN(CCc2ccc(Cl)c(Cl)c2)CC1` [BD1063], the Ki is 9.2 nM on sigma-1 receptor (S1R) (setting [1]) and 449 nM on sigma-2 receptor (S2R) (setting [1]).

As for `CN(C)CCc1c[nH]c2ccccc12` [Dimethyltryptamine, N,N-dimethyltryptamine], the “response in a behavioral assay measuring motor coordination” value in the assay on S1R knockout mice is listed as “failed to respond”. Further, the Ki on sigma-1 receptor (S1R) (setting [3]) is 14700 nM; at sigma-2 receptor (S2R) (setting [3]) it was 21700 nM.

The record behind these values is PMC4941945 (Current protocols in pharmacology / editorial board, S.J. …, 2015).
